According to ChEMBL document CHEMBL3526118, “Combination of GSH trapping and time-dependent inhibition assays as a predictive method of drugs generating highly reactive metabolites” (Drug Metab Dispos, 2011):

Key:
CYP2C8 = target: T1, CYP2C8 (Homo sapiens, UniProt P10632); assay: in vitro
T1 sequence (P10632 whole entry): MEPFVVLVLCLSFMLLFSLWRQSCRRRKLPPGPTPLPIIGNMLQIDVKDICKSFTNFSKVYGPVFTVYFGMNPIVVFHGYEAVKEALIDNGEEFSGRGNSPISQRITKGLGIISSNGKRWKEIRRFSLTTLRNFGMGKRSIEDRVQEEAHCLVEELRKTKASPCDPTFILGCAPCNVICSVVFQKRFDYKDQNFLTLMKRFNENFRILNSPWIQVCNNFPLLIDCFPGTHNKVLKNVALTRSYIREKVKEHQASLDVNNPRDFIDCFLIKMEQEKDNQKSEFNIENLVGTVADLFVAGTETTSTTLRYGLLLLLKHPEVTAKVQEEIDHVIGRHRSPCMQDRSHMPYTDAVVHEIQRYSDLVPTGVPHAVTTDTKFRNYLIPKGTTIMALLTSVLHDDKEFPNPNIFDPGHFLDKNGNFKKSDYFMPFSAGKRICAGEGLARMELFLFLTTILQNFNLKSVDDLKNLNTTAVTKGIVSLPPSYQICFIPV

CYP2B6 = target: T2, CYP2B6 (Homo sapiens, UniProt P20813); assay: in vitro
T2 sequence (P20813 whole entry): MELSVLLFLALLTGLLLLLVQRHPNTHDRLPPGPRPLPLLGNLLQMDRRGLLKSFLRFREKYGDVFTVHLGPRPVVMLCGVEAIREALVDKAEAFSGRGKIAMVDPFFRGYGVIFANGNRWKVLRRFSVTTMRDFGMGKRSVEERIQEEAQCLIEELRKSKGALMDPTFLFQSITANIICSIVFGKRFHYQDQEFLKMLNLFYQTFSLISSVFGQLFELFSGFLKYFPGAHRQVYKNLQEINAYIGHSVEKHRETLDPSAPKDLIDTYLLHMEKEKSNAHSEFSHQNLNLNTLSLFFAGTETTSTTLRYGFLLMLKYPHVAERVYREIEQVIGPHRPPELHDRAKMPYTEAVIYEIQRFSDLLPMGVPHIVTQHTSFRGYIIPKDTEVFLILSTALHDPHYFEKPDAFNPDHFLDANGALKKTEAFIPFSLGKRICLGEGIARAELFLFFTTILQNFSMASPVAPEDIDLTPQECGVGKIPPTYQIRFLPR

Liver microsome [1] = assay: Metabolic activation in human liver microsomes assessed as [3H]GSH adduct formation rate measured per mg of protein at 100 uM by [3H]GSH trapping assay
CYP2C19 = CYP2C19 (Homo sapiens, UniProt P33261); assay: in vitro
CYP2C9 = CYP2C9 (Homo sapiens, UniProt P11712); assay: in vitro
CYP3A4 = CYP3A4 (Homo sapiens, UniProt P08684); assay: in vitro
CYP1A2 = target: T3, CYP1A2 (Homo sapiens, UniProt P05177); assay: in vitro
T3 sequence (P05177 whole entry): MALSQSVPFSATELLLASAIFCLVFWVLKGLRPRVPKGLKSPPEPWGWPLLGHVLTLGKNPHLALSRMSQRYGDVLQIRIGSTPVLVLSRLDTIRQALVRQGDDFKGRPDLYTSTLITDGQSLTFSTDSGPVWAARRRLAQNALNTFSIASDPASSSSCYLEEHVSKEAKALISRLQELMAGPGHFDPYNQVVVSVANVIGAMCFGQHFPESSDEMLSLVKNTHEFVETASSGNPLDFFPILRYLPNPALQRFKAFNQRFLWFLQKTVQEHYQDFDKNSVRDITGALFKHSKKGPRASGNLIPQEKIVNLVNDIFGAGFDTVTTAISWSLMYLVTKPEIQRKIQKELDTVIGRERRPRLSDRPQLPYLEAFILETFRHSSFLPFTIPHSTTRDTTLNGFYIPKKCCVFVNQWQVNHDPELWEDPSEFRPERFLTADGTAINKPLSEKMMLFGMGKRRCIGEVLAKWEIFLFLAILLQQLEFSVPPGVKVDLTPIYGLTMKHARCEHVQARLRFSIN

Liver microsome [2] = assay: Covalent binding in human liver microsomes measured per mg of protein using radiolabelled compound at 10 uM after 1 hr incubation by liquid scintillation counting
CYP2D6 = CYP2D6 (Homo sapiens, UniProt P10635); assay: in vitro
[3] = Intrinsic clearance for reactive metabolites formation per mg of protein based on cytochrome P450 (unknown origin) inactivation rate by TDI assay; conditions: human
[4] = Intrinsic clearance for reactive metabolites formation assessed as summation of [3H]GSH adduct formation rate-based reactive metabolites formation and cytochrome P450 (unknown origin) inactivation rate-based reactive metabolites formation; conditions: human

CYP2C19, sequence (P33261 whole entry): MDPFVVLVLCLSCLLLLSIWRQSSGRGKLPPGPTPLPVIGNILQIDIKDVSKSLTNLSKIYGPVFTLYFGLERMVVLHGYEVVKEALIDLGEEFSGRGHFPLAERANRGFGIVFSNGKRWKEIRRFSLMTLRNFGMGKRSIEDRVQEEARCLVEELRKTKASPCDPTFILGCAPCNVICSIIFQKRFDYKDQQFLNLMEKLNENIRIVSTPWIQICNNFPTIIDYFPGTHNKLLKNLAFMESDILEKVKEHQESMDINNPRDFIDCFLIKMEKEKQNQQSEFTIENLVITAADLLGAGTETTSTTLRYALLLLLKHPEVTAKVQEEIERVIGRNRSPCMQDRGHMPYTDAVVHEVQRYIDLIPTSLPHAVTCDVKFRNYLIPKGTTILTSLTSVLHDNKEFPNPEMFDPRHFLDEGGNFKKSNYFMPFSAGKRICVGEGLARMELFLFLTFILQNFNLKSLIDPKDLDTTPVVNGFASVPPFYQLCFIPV
CYP3A4, sequence (P08684 whole entry): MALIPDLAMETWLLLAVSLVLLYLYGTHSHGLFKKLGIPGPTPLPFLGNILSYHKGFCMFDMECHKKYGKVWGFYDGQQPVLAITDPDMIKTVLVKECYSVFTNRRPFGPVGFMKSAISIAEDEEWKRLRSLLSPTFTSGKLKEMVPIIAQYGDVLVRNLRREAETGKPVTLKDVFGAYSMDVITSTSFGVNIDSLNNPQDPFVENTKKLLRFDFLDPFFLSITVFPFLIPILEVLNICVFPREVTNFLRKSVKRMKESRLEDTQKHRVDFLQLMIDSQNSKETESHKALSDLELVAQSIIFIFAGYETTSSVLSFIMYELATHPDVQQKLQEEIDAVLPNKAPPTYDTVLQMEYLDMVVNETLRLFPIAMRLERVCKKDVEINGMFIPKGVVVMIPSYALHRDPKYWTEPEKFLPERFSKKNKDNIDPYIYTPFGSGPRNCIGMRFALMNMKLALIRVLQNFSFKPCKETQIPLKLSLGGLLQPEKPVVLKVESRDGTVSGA
CYP2C9, sequence (P11712 whole entry): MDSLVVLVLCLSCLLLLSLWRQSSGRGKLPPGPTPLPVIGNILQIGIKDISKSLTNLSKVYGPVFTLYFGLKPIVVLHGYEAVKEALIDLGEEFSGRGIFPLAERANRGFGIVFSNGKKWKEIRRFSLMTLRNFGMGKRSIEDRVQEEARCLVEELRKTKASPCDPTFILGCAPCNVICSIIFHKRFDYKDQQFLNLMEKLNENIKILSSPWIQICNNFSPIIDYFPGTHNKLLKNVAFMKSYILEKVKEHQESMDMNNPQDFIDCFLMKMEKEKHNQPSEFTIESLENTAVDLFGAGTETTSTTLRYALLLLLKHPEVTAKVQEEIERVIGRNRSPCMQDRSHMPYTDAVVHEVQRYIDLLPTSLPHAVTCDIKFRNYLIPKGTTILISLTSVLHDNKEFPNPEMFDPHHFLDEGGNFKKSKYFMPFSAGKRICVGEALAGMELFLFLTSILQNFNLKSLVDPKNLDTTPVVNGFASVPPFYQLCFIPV
CYP2D6, sequence (P10635 whole entry): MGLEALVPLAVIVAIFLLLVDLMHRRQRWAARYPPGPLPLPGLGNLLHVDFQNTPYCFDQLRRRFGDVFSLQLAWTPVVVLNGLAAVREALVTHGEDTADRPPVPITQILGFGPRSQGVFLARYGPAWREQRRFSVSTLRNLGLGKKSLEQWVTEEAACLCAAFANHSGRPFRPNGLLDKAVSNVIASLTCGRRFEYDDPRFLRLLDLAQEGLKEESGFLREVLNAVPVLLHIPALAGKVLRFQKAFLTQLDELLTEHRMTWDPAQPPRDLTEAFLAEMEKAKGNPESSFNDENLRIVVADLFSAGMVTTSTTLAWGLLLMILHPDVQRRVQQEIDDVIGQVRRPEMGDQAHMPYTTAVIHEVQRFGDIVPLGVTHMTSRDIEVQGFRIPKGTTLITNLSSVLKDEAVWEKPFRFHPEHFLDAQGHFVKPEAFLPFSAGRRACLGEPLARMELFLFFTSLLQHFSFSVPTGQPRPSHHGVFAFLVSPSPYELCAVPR

| SMILES | inhibition at 100 µM (CYP2C8) [%] | inhibition at 100 µM (CYP2B6) [%] | Drug metabolism (Liver microsome [1]) | inhibition at 100 µM (CYP2C19; microsomes) [%] | inhibition at 100 µM (CYP2C9) [%] | inhibition at 100 µM (CYP3A4) [%] | inhibition at 100 µM (CYP1A2) [%] | PB (Liver microsome [2]) [pmol] | inhibition at 100 µM (CYP2D6) [%] | clearance [3] [µL/min/mg] | clearance [4] [µL/min/mg] | inhibition at 100 µM (CYP2C19; human liver microsomes) [%] |
| --- | --- | --- | --- | --- | --- | --- | --- | --- | --- | --- | --- | --- |
| Cc1cc(NS(=O)(=O)c2ccc(N)cc2)no1 [SULFAMETHOXAZOLE] | < 10 | < 10 |  |  |  |  |  |  |  |  |  |  |
| CC[C@H](C)C(=O)O[C@H]1C[C@H](O)C=C2C=C[C@H](C)[C@H](CC[C@@H](O)C[C@@H](O)CC(=O)O)[C@H]21 [PRAVASTATIN] | < 10 | < 10 | metabolite_not_detected | < 10 | < 10 | < 10 | < 10 | 3.7 | < 10 |  |  |  |
| CN(C)CCCN1c2ccccc2CCc2ccccc21 [IMIPRAMINE] | < 10 | < 10 |  |  | < 10 | < 10 | < 10 |  | < 10 |  |  |  |
| CC(C)c1nc(CN(C)C(=O)N[C@H](C(=O)N[C@@H](Cc2ccccc2)C[C@H](O)[C@H](Cc2ccccc2)NC(=O)OCc2cncs2)C(C)C)cs1 [RITONAVIR] |  |  | metabolite_not_detected |  |  |  |  | 253.3 |  | 3.55 | 3.55 |  |
| CCN(CC)CCNC(=O)c1ccc(N)cc1 [PROCAINAMIDE] | < 10 | < 10 | 41.3 pmol/min |  | < 10 | < 10 | < 10 | 5.1 | < 10 |  |  |  |
| CC(C)NCC(O)COc1cccc2ccccc12 (centres undefined) [PROPRANOLOL] | < 10 | < 10 |  | < 10 | < 10 | < 10 | 25 |  | < 10 | 0.004 | 0.031 |  |
| CCCC(CCC)C(=O)O [VALPROIC ACID] | < 10 | < 10 |  |  | < 10 | < 10 | < 10 |  | < 10 |  |  |  |
| COc1ccc(CCN(C)CCCC(C#N)(c2ccc(OC)c(OC)c2)C(C)C)cc1OC (centres undefined) | < 10 | 10 |  | < 10 | < 10 | 51 | < 10 |  | < 10 |  |  |  |
| Cc1c(N(C)C)c(=O)n(-c2ccccc2)n1C [AMINOPYRINE] | < 10 | < 10 | metabolite_not_detected | < 10 | < 10 | < 10 | < 10 | 30.9 | < 10 |  |  |  |
| Nc1c2c(nc3ccccc13)CCCC2 [TACRINE] | < 10 | < 10 | metabolite_not_detected | < 10 | < 10 | < 10 | 28 | 137 | 24 | 0.007 | 0.007 |  |
| Cn1c(=O)c2c(ncn2C)n(C)c1=O [CAFFEINE] | < 10 | < 10 | metabolite_not_detected |  | < 10 | < 10 | < 10 | 9.9 | < 10 |  |  | < 10 |
| CC(=O)CC(c1ccccc1)c1c(O)c2ccccc2oc1=O (centres undefined) [WARFARIN] | < 10 | < 10 | metabolite_not_detected |  | < 10 | < 10 | 19 | 15.9 | < 10 | 0.003 | 0.003 | < 10 |
| CCCCC(=O)N(Cc1ccc(-c2ccccc2-c2nnn[nH]2)cc1)[C@H](C(=O)O)C(C)C | < 10 | < 10 | metabolite_not_detected |  | < 10 | < 10 | < 10 | 1.4 | < 10 |  |  | < 10 |
| CCCc1nc(C(C)(C)O)c(C(=O)O)n1Cc1ccc(-c2ccccc2-c2nnn[nH]2)cc1 [OLMESARTAN] | < 10 | < 10 | metabolite_not_detected |  | < 10 | < 10 | < 10 | 3.4 | < 10 |  |  | < 10 |
| CN1CCN(C2=Nc3cc(Cl)ccc3Nc3ccccc32)CC1 [CLOZAPINE] | < 10 | < 10 |  |  | < 10 |  | 12 |  | < 10 |  |  |  |

More lines, now with the values ahead:

| inhibition at 100 µM (CYP2C8) [%] | inhibition at 100 µM (CYP2B6) [%] | Drug metabolism (Liver microsome [1]) | inhibition at 100 µM (CYP2C19; microsomes) [%] | inhibition at 100 µM (CYP2C9) [%] | inhibition at 100 µM (CYP3A4) [%] | inhibition at 100 µM (CYP1A2) [%] | PB (Liver microsome [2]) [pmol] | inhibition at 100 µM (CYP2D6) [%] | clearance [3] [µL/min/mg] | clearance [4] [µL/min/mg] | inhibition at 100 µM (CYP2C19; human liver microsomes) [%] | SMILES |
| --- | --- | --- | --- | --- | --- | --- | --- | --- | --- | --- | --- | --- |
| 14 | < 10 | metabolite_not_detected |  | < 10 | < 10 | < 10 | 14.7 | < 10 | 0.001 | 0.001 | < 10 | COc1ccc2c(c1)c(CC(=O)O)c(C)n2C(=O)c1ccc(Cl)cc1 [INDOMETHACIN] |
| < 10 | < 10 | metabolite_not_detected | < 10 | < 10 | < 10 | < 10 | 6.4 | < 10 |  |  |  | Cc1cc(CC(=O)O)n(C)c1C(=O)c1ccc(Cl)cc1 [ZOMEPIRAC] |
| < 10 | < 10 | 12.7 pmol/min |  |  |  |  | 352.3 |  |  |  |  | CC(C)c1c(C(=O)Nc2ccccc2)c(-c2ccccc2)c(-c2ccc(F)cc2)n1CC[C@@H](O)C[C@@H](O)CC(=O)O [ATORVASTATIN] |
| < 10 | < 10 | metabolite_not_detected |  | < 10 |  | < 10 |  | < 10 |  |  | < 10 | C[C@H]1COc2c(N3CCN(C)CC3)c(F)cc3c(=O)c(C(=O)O)cn1c23.C[C@H]1COc2c(N3CCN(C)CC3)c(F)cc3c(=O)c(C(=O)O)cn1c23.O [LEVOFLOXACIN] |
|  |  | metabolite_not_detected |  |  |  |  | 29.7 |  |  |  |  | COc1cc2c(cc1OC)C(=O)C(CC1CCN(Cc3ccccc3)CC1)C2 (centres undefined) [DONEPEZIL] |
| < 10 | < 10 |  |  |  |  |  |  |  |  |  |  | NS(=O)(=O)c1cc(C(=O)O)c(NCc2ccco2)cc1Cl [FUROSEMIDE] |
